{"source": "patent US9750426B2", "about": "“System and method for assessing response to chemotherapy using magnetic resonance elastography” (MAYO FOUNDATION FOR MEDICAL EDUCATION AND RESEARCH, priority 2010, dated 2017)", "key": {"DoHH2 cells": {"tested_on": "DoHH2 cells", "protocol": "The mice were divided into two groups, the first considered the “control” (N=7) and the second the chemotherapy or “chemo” (N=8) group. […] Following an initial scan to determine baseline stiffness, the control group received an injection of normal saline while the chemo group received 4 mg of cyclophosphamide (160 mg/kg). MRE was performed on each mouse using an experimental setup specifically designed to accommodate the mouse and providing the mouse with the requisite anesthesia, via a constant flow of isofluorane during the image acquisition. MRE was performed at different time points (baseline to 4 days post-injection). The experimental setup included a high-frequency electromechanical driver that was developed to produce localized vibrations in the tumor within the mouse at a frequency of 800 Hz. All experiments were performed on a 3.0 T whole-body MRI scanner using a specialized 6-cm diameter transmit-receive RF coil and an EPI based MRE sequence. The MRE imaging parameters included FOV=5 cm; TRITE=1100/99 msec; motion encoding gradient (MEG) frequency=800 Hz; MEG direction=SI, AP, RL; motion encoding sensitivity=3.98 μm/(π radians); BW=83.0 kHz. Volumetric measurements were obtained using both a caliper and measurements from a T2-weighted image data set in order to quantify treatment response. Elastograms (stiffness maps) were calculated using a Multiple Model Direct Inversion (MMDI) algorithm with a directional filter (Butterworth bandpass filter with cutoff frequencies 2-128 waves/FOV)."}}, "data": [{"compound": "O=P1(N(CCCl)CCCl)NCCCO1", "note": "(stereo not drawn) [cyclophosphamide]", "values": [{"measurement": "tumor stiffness, Mean", "setting": "DoHH2 tumor cells; CB17/SCID mice, subcutaneous DoHH2 tumors, 160 mg/kg (4 mg) intraperitoneally, tumors excised four hours later, MRE ex vivo, N=5", "result": 21.82, "unit": "kPa"}, {"measurement": "stiffness change 4 hours after drug administration (ex vivo)", "setting": "DoHH2 tumor cells; ex vivo mouse tumor studies, 4 hours after drug administration", "result": "stiffness increased"}, {"measurement": "change in tumor stiffness measured by MRE versus saline", "setting": "DoHH2 tumor cells; one-sided T-test between chemo and saline groups, p value 0.034, 4 hours after dosing", "result": "significant change in the tumor stiffness"}, {"measurement": "change in stiffness from baseline at day 4", "setting": "DoHH2 cells; Tukey HSD test, p=0.02", "result": "significant change in stiffness"}, {"measurement": "change in stiffness from baseline at day 3", "setting": "DoHH2 cells; Tukey HSD test, p=0.04", "result": "significant change in stiffness"}, {"measurement": "change in tumor volume", "setting": "DoHH2 cells; caliper and T2-weighted image measurements, baseline to day 4, p=0.59, no statistically significant change", "result": "remained the same or decreased slightly"}, {"measurement": "average shear stiffness at day 4", "setting": "DoHH2 cells; in vivo MRE 800 Hz, 4 mg (160 mg/kg), day 4, N=8, baseline 9.885±1.74 kPa", "result": "8.237±1.93", "unit": "kPa"}, {"measurement": "average decrease in shear stiffness from baseline to day 4", "setting": "DoHH2 cells; in vivo MRE, 4 mg (160 mg/kg), N=8", "result": 1.649, "unit": "kPa"}, {"measurement": "change in stiffness in vivo before three days after injection", "setting": "DoHH2 cells; time points before three days after injection", "result": "No changes in stiffness were observed"}]}]}
